Laboratory results from PubChem BioAssay AID1259334 (Broad Institute, 2017).
Active and inactive are the calls of the source. No stated cut-off is given here; in the data, active means AC50 below about 11 µM.

Experiments:
[1] = tested on: B cell line, TNFa signaling counterscreen reporter; test: TNFa signaling inhibitors in B cell line, dose response, counter-screen (AID 1259334);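 further: cells stimulated with TNFa after compound preincubation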
[2] = as above; conditions: B cell line, TNFa signaling counterscreen reporter, active compounds read low

With `O=C(c1ccc(F)cc1)N1C[C@@H]2N[C@H](C1)C2c1ccc(/C=C/c2ccccc2)cc1` (stereo not given in full) the AC50 [1] was 7.15 µM and the max activity ([2]; at 3.5 µM) was 10.7% (inactive).

For `O=C(C[C@@H]1CC[C@H]2[C@@H](COC[C@@H](O)CN2Cc2cc(F)ccc2F)O1)NCc1ccc(Oc2ccccc2)cc1`, the max activity ([2]; at 3.5 µM) was -19.8% (inactive).

For `COc1ccc(NC(=O)O/N=C/c2c(C)nn(C(C)(C)C)c2C)cc1`, the max activity ([2]; at 1.1 µM) was 39.8% (inactive).

In the case of `O=S(=O)(c1cccc2cnccc12)N1CCNCC1`, the max activity ([2]; at 0.042 µM) is reported as -11.3% (inactive).

For `CC(C)OC(=O)CC1C(=O)NCCN1C(=S)NC(=O)c1cccs1` (stereo not given), the max activity ([2]; at 3.5 µM) was 7.79% (inactive).

In the case of `O=c1cc(-c2ccccc2)oc2cc(O)cc(O)c12`, the max activity ([2]; at 0.12 µM) is reported as 45.8% (inactive).

In the case of `N#C[C@H]1[C@@H](c2ccc(C#CC3CCCCC3)cc2)[C@@H](CO)N1C(=O)Nc1ccc(F)cc1`, the max activity ([2]; at 1.1 µM) is reported as 10.8% (inactive).

For `Cc1ccc(-c2cc(C(=O)N3CC(C)OC(C)C3)c3ccccc3n2)o1` (stereo not given), the max activity ([2]; at 1.1 µM) was 10.3% (inactive).

With `O=C(Nc1ccc([N+](=O)[O-])cc1Cl)c1cc(Cl)ccc1O` the max activity ([2]; at 1.1 µM) was 14.6% (inactive).

With `Oc1ccc(Cc2ccccc2)c2cccnc12` the max activity ([2]; at 0.38 µM) was -12% (inactive).

For `CCc1cc2c(=O)c(-c3ccc4c(c3)OCCO4)coc2c(CN2CCCCC2C)c1O` (stereo not given), the max activity ([2]; at 10 µM) was 26.6% (inactive).

For `O=C(CNCCO)N1N=C(c2cccs2)CC1c1cccs1` (stereo not given), the max activity ([2]; at 3.5 µM) was -16% (inactive).

For `CC12CN3CC(C)(CN(C1)C3c1ccc3c(c1)OCO3)C2=O` (stereo not given), the max activity ([2]; at 0.12 µM) was -17.3% (inactive).

With `COc1cccc(OC)c1OCCNCC1COc2ccccc2O1` (stereo not given) the max activity ([2]; at 0.0135 µM) was 14.5% (inactive).

In the case of `CC(=NNC(=S)N1CC2CCC(CC2)C1)c1nccs1`, the max activity ([2]; at 10 µM) is reported as 43.9% (inactive).

With `NS(=O)(=O)c1nn2cc(-c3ccccc3)nc2s1` the max activity ([2]; at 1.1 µM) was 17.7% (inactive).

In the case of `CC1=CC(=O)c2ccccc2C1=O`, the max activity ([2]; at 1.1 µM) is reported as 21.6% (inactive).

In the case of `Cc1ccc(O)c(N=Nc2ccccc2)n1`, the max activity ([2]; at 0.12 µM) is reported as 62% (inactive).

With `N#C[C@@H]1[C@@H](c2ccc(C#CC3CCCCC3)cc2)[C@H](CO)N1C(=O)Nc1ccc(F)cc1` the max activity ([2]; at 0.042 µM) was 13.4% (inactive).
